According to US20210292755A1, “NOVEL DOUBLE-STRANDED OLIGONUCLEOTIDES FOR THE TREATMENT OF CANCER” (SELEXEL, priority 2016, published 2021):
Entries after “also recorded” stand apart in the source; their conditions may differ.

Key:
AR-encoding mRNA = assay: RT-qPCR of AR-encoding mRNA after siRNA transfection; format: cell-based, human; conditions: for AR mRNA expression: both lines
Experimental: (§1) All the cells used in the following examples are human cells and express H2AX.
(§2) The cells are cultured in DMEM or RPMI supplemented with 10% fetal calf serum, or as recommended by the ATCC. When indicated, they are transfected with siRNA using lipofectamine (Life Technologies), following the supplier's protocol. The number of living cells after the indicated treatments was quantified by measuring their metabolic activity by the WST1 test according to the supplier's indications (Roche).
(§3) The effect of siRNA transfection and/or treatments by different chemotherapeutic agents on gene expression was measured: • by RT-qPCR quantification of mRNAs extracted by a conventional phenol-chloroform method (Trizol). The amount of RNA was normalized by measuring the cyclophilin A-encoding mRNA which is not regulated by AR (delta delta CT method). • by Western blotting on protein extracts. The antibodies used are: AR: Santacruz, N-20 sc-816; H2AX: Merck Millipore ref 07-627; Tubulin: Sigma T6199; Actin: Merck Millipore MAB 1501; γH2AX: Merck Millipore 05-636. […] The antibodies used are the following: γH2AX: Merck Millipore 05-636; 53BP1: Novus, NB 100-304.

H2AX-encoding mRNA = assay: RT-qPCR of H2AX-encoding mRNA after siRNA transfection; format: cell-based, human
Experimental: as §1, §2, §3

PSA-encoding mRNA = assay: RT-qPCR of PSA-encoding mRNA after siRNA transfection; format: cell-based, human; conditions: LNCaP or C4-2 cells, both lines, 72 hours after transfection
Experimental: as §1, §2, §3
In the experiment shown in FIG. 4, the LNCaP or C4-2 tumor cells were transfected with the following siRNAs: Cont, siAR7 or siARH2AX-1.

AR = assay: Western blot of AR after siRNA transfection; format: cell-based, human; conditions: C4-2 cells, 72 h after transfection
Experimental: as §1, §2, §3

H2AX = assay: Western blot of H2AX after siRNA transfection; format: cell-based, human
Experimental: as §1, §2, §3

γH2AX [1] = assay: Western blot of γH2AX after siRNA transfection; format: cell-based, human; conditions: PC3 cells, 72 hours after transfection
Experimental: as §1, §2, §3

γH2AX [2] = assay: Indirect immunofluorescence of γH2AX, bleomycin-treated transfected cells; format: cell-based, human; conditions: 72 hours after transfection
Experimental: (§4) FIG. 8: Immuno detection of γH2AX (first column) and 53BP1 (second column) in C4-2 cells treated for 6 h with bleomycin ([…]) or the vehicle added 72 h after transfection of cells by a control siRNA (Cont), siAR7 siRNA, or siARH2AX-1.
as §1, §2, §3
(§5) In the experiment shown in FIG. 8, C4-2 cells were transfected with a control or siARH2AX-1 siRNA. 72 hours after transfection, the cells were then treated for 6 hours with […] of bleomycin or the corresponding vehicle.

53BP1 = assay: Indirect immunofluorescence of 53BP1, bleomycin-treated transfected cells; format: cell-based, human
Experimental: as §4, §1, §2, §3, §5

22RV1 cells = assay: WST1 cell viability test; format: cell-based, human; conditions: 72 hr after transfection
Experimental: as §1, §2

C4-2 cells = assay: WST1 cell viability test; format: cell-based, human
Experimental: as §1, §2

LNCaP cells = assay: WST1 cell viability test; format: cell-based, human
Experimental: as §1, §2

MDA MB-453 cells = assay: WST1 cell viability test; format: cell-based, human; conditions: 72 hr after transfection
Experimental: as §1, §2

MDA MB231 cells = assay: WST1 cell viability test; format: cell-based, human
Experimental: as §1, §2

U87 cells = assay: WST1 cell viability test; format: cell-based, human; conditions: 72 hr after transfection
Experimental: as §1, §2

WM266-4 cells = assay: WST1 cell viability test; format: cell-based, human
Experimental: as §1, §2

human AR mRNA = assay: AR mRNA in tibia of 22RV1 tumor-bearing mice; format: in vivo; conditions: Nude mice with 22RV1 tumors, 0.2 mg/kg/day continuous subcutaneous, 3 weeks, in 154 mM NaCl
Experimental: Left panel: Expression level of human AR mRNA in nude mouse tibia carrying 22RV1 human prostate tumors in vehicle-treated mice (154 mM NaCl, black bar) or siARH2AX-1 diluted in this vehicle (gray bar) and administered subcutaneously continuously for 3 weeks (mean±SEM, n=7 values relative to the mean value of the NaCl group).
(§6) Tumors are obtained by subcutaneous injection of tumor cells into the flank of Nude mice. Only animals on which tumor uptake is found are included in the study and randomized to receive treatment or control treatment.
When indicated, the continuous administration of siRNA is carried out by implantation of an Alzet osmotic pump subcutaneously on the back of the mice, on the opposite side to the tumor when the mice wear one. […]
(§7) At the end of the experiment, the animals are sacrificed, the serum, the tumors and different tissues are dissected, the extracted RNAs and the siRNAs present in these RNAs are quantified.
(§8) In the experiment shown in FIG. 14, 22RV1 cells were implanted in Nude mice. Once the tumor was detected, Alzet pumps administering either 0.2 mg/kg/day siARH2AX-1 siRNA formulated in saline (154 mM NaCl), or the vehicle alone, were implanted for 3 weeks. At the end of treatment, the bones (tibia) were recovered to quantify siARH2AX-1, and the androgen receptor- and the HPRT-encoding mRNAs of human origin.

[3] = test system: 22RV1 human prostate tumors; assay: Bone metastases of 22RV1 tumors in Nude mice (human HPRT mRNA); format: in vivo; conditions: 0.2 mg/kg/day continuous subcutaneous, 3 weeks, in 154 mM NaCl
Experimental: Right panel: Metastatic load in bone as measured by the expression of human HPRT mRNA in both groups of animals. Each bar represents bone metastatic load in a mouse.
as §6
(§9) When indicated, the continuous administration of siRNA is carried out by implantation of an Alzet osmotic pump subcutaneously on the back of the mice, on the opposite side to the tumor when the mice wear one. The concentration of siRNA in the pump is adjusted to deliver the indicated amount in mg/kg/day taking into account the pump flow rate indicated by the manufacturer.
as §7, §8

[4] = siRNA distribution by RT-qPCR, continuous subcutaneous osmotic pump; format: in vivo; conditions: 2 mg/kg/day continuous subcutaneous, 3 days, 22RV1 tumor-bearing mice; 10 mM citrate buffer pH 6 with oxidized LDL (1:0.1 weight:weight) versus 154 mM NaCl
From the text: To quantify a siRNA in the biological samples, the inventors have developed a reverse transcription method followed by a quantitative PCR (RT-qPCR). For each siRNA, a specific stem-loop primer, having 8 overflowing nucleotides is synthesized, the 8 nucleotides being complementary to the 8 nucleotides of the 3′ end of the siRNA guide (antisense) strand. After a reverse transcription step, the product obtained is amplified by PCR using two primers, one hybridizing with the region corresponding to the loop of the reverse transcription primer. The 12 nucleotides at 3′ of the second primer having a DNA sequence corresponding to the 12 nucleotides of the 5′ end of the newly synthesized cDNA after reverse transcription of the siRNA guide strand. Detection of the amplification is carried out continuously by the degradation of a Taqman fluorescent probe or by incorporation of SybrGreen.
A range of double stranded siRNAs, from 10^3 to 10^9 copies in the RT reaction, diluted in water is made and treated together with the samples by RT-qPCR.
The biological samples in which siRNAs are quantified are either serum or total RNAs extracted from tissue fragments of known weight assumed to contain siRNA. […]
At the end of the experiment, the animals are sacrificed, the serum, the tumors and different tissues are dissected, the extracted RNAs and the siRNAs present in these RNAs are quantified. […]

[5] = test system: 22RV1 human prostatic tumor; assay: Subcutaneous tumor volume in mice; format: in vivo; conditions: 2 mg/kg/day
Experimental: as §6, §9
The subcutaneous tumors volume is estimated by measuring with a calliper the largest (D), the smallest (d) diameter of the tumors and their height (h). The volume is calculated by the formula V=D×d×h×Pi/6.

[6] = C4-2 cells, 48 hours after transfection, relative to control siRNA
[7] = 40 μl of etoposide added 24 hours after transfection, WST1 48 h later

siARH2AX-1: bispecific AR-H2AX siRNA, SEQ ID NO: 1 GACUCAGCUGCCCCAUCCA[dT][dT] and SEQ ID NO: 2 UGGAUGGGGCAGCUGAGUC[dT][dT] (chain 1 GACUCAGCUGCCCCAUCCANN; chain 2 UGGAUGGGGCAGCUGAGUCNN; 3' dTdT overhangs, chemistry not fully specified)
AR expression (mRNA) (AR-encoding mRNA; [6]): inhibit AR expression in a similar manner | AR mRNA expression (AR-encoding mRNA; LNCaP or C4-2 cells, 72 hours after transfection): inhibit the expression of AR and PSA | AR mRNA expression (AR-encoding mRNA; LNCaP or MDA MB-453 cells, 72 h after transfection): inhibits the expression of the two AR- and H2AX-encoding mRNAs | H2AX expression (mRNA) (H2AX-encoding mRNA; [6]): much more effective than siAR2 siRNA in inhibiting H2AX expression | inhibition of H2AX mRNA expression (H2AX-encoding mRNA; LNCaP or C4-2 cells, both lines, 72 hours after transfection): more than 90% | H2AX mRNA expression (H2AX-encoding mRNA; LNCaP or MDA MB-453 cells, both lines, 72 h after transfection): inhibits the expression of the two AR- and H2AX-encoding mRNAs | PSA mRNA expression (PSA-encoding mRNA): inhibit the expression of AR and PSA | AR protein expression (AR): inhibits the expression of both AR and H2AX proteins | H2AX protein expression (H2AX; C4-2 cells, 72 h after transfection): inhibits the expression of both AR and H2AX proteins | H2AX protein expression (H2AX; PC3 cells, 72 hours after transfection): is inhibited | γH2AX phosphorylated form (γH2AX [1]): inhibition of its γH2AX phosphorylated form | expression of H2AX (immunofluorescence) (γH2AX [2]; C4-2 cells, without bleomycin, compared to control condition): very small compared to the control condition | γH2AX labeling after bleomycin (γH2AX [2]; siRNA-transfected C4-2 cells, bleomycin 6 hours): no increase H2AX | expression of 53BP1 (53BP1; C4-2 cells, 72 hours after transfection, without bleomycin, compared to control condition): comparable | DNA repair (53BP1; conclusion from γH2AX/53BP1 experiment in C4-2 cells): inhibits DNA repair | recruitment of 53BP1 to DNA lesions after bleomycin (53BP1; siRNA-transfected C4-2 cells, 72 hours after transfection, bleomycin 6 hours): no increase H2AX or recruitment of 53BP1 | cell viability / proliferation (22RV1 cells): inhibits the proliferation of all cell lines | cell viability / proliferation (C4-2 cells; 72 hr after transfection): inhibits the proliferation of all cell lines | cell viability (C4-2 cells; 90 hours after transfection): significantly reduced | cell viability, siRNA combined with bleomycin (C4-2 cells; bleomycin (10 μM) added 48 hours after transfection, read 48 hours later, versus chemotherapeutic agent alone): potentiate to inhibit cell viability | cell viability, siRNA combined with etoposide (C4-2 cells; etoposide (10 μM) added 48 hours after transfection, read 48 hours later, versus chemotherapeutic agent alone): potentiate to inhibit cell viability | cell viability / proliferation (LNCaP cells; 72 hr after transfection): inhibits the proliferation of all cell lines | cell survival, siRNA combined with bleomycin, versus addition of the separate effects (LNCaP cells; bleomycin (10 μM)): approximately twice as inhibitory | cell viability / proliferation (MDA MB-453 cells): inhibits the proliferation of all cell lines | cell viability, siRNA combined with etoposide (MDA MB231 cells; [7]): potentiate when combined | cell viability / proliferation (MDA MB231 cells; 72 hr after transfection): inhibits the proliferation of all cell lines | cell viability (MDA MB231 cells; 90 hours after transfection): significantly reduced | cell viability / proliferation (U87 cells): inhibits the proliferation of all cell lines | cell viability, siRNA combined with etoposide (WM266-4 cells; [7]): potentiate when combined | cell viability / proliferation (WM266-4 cells; 72 hr after transfection): inhibits the proliferation of all cell lines | expression of the androgen receptor in the bones (tibia) (human AR mRNA): inhibit the expression of the androgen receptor | number of mice spontaneously developing bone metastases [3]: decrease in the number of mice spontaneously developing bone metastases | size of bone metastases (human HPRT mRNA level in bone) [3]: decrease in the size of these tumors | concentration of siARH2AX-1 in serum, different organs and tumors [4]: increases the concentration | tumor development, combination with etoposide ([5]; siARH2AX-1 2 mg/kg/day continuous subcutaneous plus etoposide intraperitoneal): potentiates the effect of these two treatments taken separately; also recorded: amplifies tumor growth inhibition | tumor development ([5]; siARH2AX-1 2 mg/kg/day continuous subcutaneous, 22 days, 10 mM citrate buffer pH 6 with 10 mM MgCl2): as effective as the high dose of etoposide; also recorded: effectively inhibits tumor development
